Experimental data as given in ChEMBL document CHEMBL5241062, “Recent advances of dual FGFR inhibitors as a novel therapy for cancer” (Eur J Med Chem, 2021).

Assays:
[1] = biological target: T1, Vascular endothelial growth factor receptor 2 (Homo sapiens, UniProt P35968); assay: Inhibition of N-terminal 6-His tagged recombinant VEGFR2 Kinase domain (unknown origin) expressed in baculovirus expression system incubated for 30 mins in the presence of [33p]-ATP by scintillation counting analysis
[2] = biological target: T2, Fibroblast growth factor receptor 1 (Homo sapiens, UniProt P11362); assay: Inhibition of N-terminal 6-His tagged recombinant FGFR1 Kinase domain (unknown origin) expressed in baculovirus expression system incubated for 30 mins in the presence of [33p]-ATP by scintillation counting analysis
[3] = biological target: T3, Platelet-derived growth factor receptor beta (Homo sapiens, UniProt P09619); assay: Inhibition of N-terminal 6-His tagged recombinant PDGFRbeta Kinase domain (unknown origin) expressed in baculovirus expression system incubated for 30 mins in the presence of [33p]-ATP by scintillation counting analysis
[4] = tested on: NCI-H1581; assay: Antitumor activity against human NCI-H1581 cells assessed as tumor growth inhibition at 50 mg/kg, po administered for 14 days relative to control; assay type: functional; settings: NCI-H1581, 336 h, time 14 day, read-out: TGI
[5] = biological target: T4, Receptor-type tyrosine-protein kinase FLT3 (Homo sapiens, UniProt P36888); assay: Inhibition of His tagged recombinant human FLT3 (564 to 958 residues) expressed in baculovirus expression system incubated for […] in the presence of ATP by Z'-LYTE kinase assay
T4 sequence (P36888 whole entry): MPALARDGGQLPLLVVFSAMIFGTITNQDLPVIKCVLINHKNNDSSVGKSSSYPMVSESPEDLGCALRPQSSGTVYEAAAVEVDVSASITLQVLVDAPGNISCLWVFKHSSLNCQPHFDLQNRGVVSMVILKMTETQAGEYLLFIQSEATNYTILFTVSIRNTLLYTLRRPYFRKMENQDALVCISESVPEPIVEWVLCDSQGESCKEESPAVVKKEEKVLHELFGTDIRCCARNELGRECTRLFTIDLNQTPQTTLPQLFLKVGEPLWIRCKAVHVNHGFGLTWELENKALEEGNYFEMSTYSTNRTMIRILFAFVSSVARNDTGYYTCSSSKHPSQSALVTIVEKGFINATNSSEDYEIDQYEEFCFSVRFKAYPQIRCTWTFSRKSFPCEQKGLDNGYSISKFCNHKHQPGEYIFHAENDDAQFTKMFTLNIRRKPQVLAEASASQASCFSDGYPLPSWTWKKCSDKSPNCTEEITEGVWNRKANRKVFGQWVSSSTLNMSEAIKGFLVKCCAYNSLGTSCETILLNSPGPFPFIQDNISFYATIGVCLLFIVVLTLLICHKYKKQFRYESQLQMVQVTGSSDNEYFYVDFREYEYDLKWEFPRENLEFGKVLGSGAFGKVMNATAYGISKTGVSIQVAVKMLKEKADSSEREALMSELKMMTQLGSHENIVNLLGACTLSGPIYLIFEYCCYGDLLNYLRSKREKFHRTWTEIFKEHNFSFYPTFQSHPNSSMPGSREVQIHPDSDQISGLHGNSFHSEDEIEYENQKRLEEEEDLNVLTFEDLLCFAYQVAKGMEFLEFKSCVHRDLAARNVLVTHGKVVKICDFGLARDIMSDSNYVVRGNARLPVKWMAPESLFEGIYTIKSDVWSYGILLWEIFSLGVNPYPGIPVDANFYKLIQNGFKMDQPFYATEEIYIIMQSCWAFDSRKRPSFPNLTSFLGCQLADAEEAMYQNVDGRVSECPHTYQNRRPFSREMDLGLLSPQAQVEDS

[6] = biological target: Platelet-derived growth factor receptor alpha (Homo sapiens, UniProt P16234); assay: Inhibition of PDGFRalpha (unknown origin) incubated for […] in the presence of ATP by Z'-LYTE kinase assay
[7] = biological target: T5, Fibroblast growth factor receptor substrate 2 (Homo sapiens, UniProt Q8WU20); assay: Inhibition of FRS2 phosphorylation at Tyr196 residue in human SNU-16 cells incubated for 20 mins by electrochemiluminescence method; assay type: cell-based
T5 sequence (Q8WU20 whole entry): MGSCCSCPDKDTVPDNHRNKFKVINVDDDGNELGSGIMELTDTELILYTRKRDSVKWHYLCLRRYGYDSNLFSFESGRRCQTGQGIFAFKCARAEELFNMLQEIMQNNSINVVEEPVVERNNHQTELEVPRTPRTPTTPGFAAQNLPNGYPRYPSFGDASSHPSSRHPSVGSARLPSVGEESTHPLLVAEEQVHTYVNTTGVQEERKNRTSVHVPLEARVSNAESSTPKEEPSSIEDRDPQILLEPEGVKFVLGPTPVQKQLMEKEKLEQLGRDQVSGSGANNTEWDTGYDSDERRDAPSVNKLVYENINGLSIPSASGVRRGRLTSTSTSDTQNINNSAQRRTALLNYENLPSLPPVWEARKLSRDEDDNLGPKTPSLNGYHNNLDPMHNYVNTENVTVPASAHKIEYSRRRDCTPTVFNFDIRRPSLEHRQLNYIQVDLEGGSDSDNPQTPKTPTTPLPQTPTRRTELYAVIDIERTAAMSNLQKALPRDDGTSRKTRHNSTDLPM

[8] = tested on: RT-4; assay: Antitumor activity against human RT-4 cells xenografted in mouse assessed as tumor growth inhibition at 40 mg/kg/day, po administered for 21 days relative to control; assay type: functional; settings: RT-4, 504 h, time 21 day, read-out: TGI
[9] = biological target: T1, Vascular endothelial growth factor receptor 2; assay: Inhibition of recombinant VEGFR2 (unknown origin) in the presence of [p33]-ATP
[10] = biological target: Vascular endothelial growth factor receptor 3 (Homo sapiens, UniProt P35916); assay: Inhibition of recombinant VEGFR3 (unknown origin) in the presence of [p33]-ATP
[11] = biological target: T5, Fibroblast growth factor receptor substrate 2; assay: Inhibition of FRS2 phosphorylation at Tyr196 residue in human RT-4 cells incubated for 20 mins by electrochemiluminescence method; assay type: cell-based
[12] = biological target: T2, Fibroblast growth factor receptor 1; assay: Inhibition of recombinant FGFR1 (unknown origin) in the presence of [p33]-ATP
[13] = biological target: T6, Vascular endothelial growth factor receptor 1 (Homo sapiens, UniProt P17948); assay: Inhibition of recombinant VEGFR1 (unknown origin) in the presence of [p33]-ATP
[14] = biological target: T7, Fibroblast growth factor receptor 4 (Homo sapiens, UniProt P22455); assay: Inhibition of recombinant FGFR4 (unknown origin) in the presence of [p33]-ATP
[15] = tested on: RT-4; assay: Antitumor activity against human RT-4 cells xenografted in mouse assessed as tumor growth inhibition at 20 mg/kg/day, po administered for 21 days relative to control; assay type: functional; settings: RT-4, 504 h, time 21 day, read-out: TGI
[16] = biological target: T8, Fibroblast growth factor receptor 3 (Homo sapiens, UniProt P22607); assay: Inhibition of recombinant FGFR3 (unknown origin) in the presence of [p33]-ATP
[17] = biological target: T9, Fibroblast growth factor receptor 2 (Homo sapiens, UniProt P21802); assay: Inhibition of recombinant FGFR2 (unknown origin) in the presence of [p33]-ATP
[18] = biological target: T5, Fibroblast growth factor receptor substrate 2; assay: Inhibition of FRS2 phosphorylation at Tyr196 residue in human NCI-H1581 cells incubated for 20 mins by electrochemiluminescence method; assay type: cell-based
[19] = biological target: T10, Epidermal growth factor receptor (Homo sapiens, UniProt P00533); assay: Inhibition of EGFR (unknown origin) by Z'-LYTE Kinase assay
[20] = biological target: T7, Fibroblast growth factor receptor 4; assay: Inhibition of FGFR4 (unknown origin) by Z'-LYTE Kinase assay
[21] = biological target: T9, Fibroblast growth factor receptor 2; assay: Inhibition of FGFR2 (unknown origin) by Z'-LYTE Kinase assay
[22] = biological target: T8, Fibroblast growth factor receptor 3; assay: Inhibition of FGFR3 (unknown origin) by Z'-LYTE Kinase assay
[23] = biological target: T2, Fibroblast growth factor receptor 1; assay: Inhibition of FGFR1 (unknown origin) by Z'-LYTE Kinase assay
[24] = biological target: T1, Vascular endothelial growth factor receptor 2; assay: Inhibition of recombinant VEGFR2 (unknown origin) incubated for 60 mins by ELISA analysis
[25] = biological target: T8, Fibroblast growth factor receptor 3; assay: Inhibition of recombinant FGFR3 (unknown origin) incubated for 60 mins by ELISA analysis
[26] = biological target: T6, Vascular endothelial growth factor receptor 1; assay: Inhibition of recombinant VEGFR1 (unknown origin) incubated for 60 mins by ELISA analysis
[27] = biological target: T3, Platelet-derived growth factor receptor beta; assay: Inhibition of recombinant PDGFRbeta (unknown origin) incubated for 60 mins by ELISA analysis
[28] = biological target: T9, Fibroblast growth factor receptor 2; assay: Inhibition of recombinant FGFR2 (unknown origin) incubated for 60 mins by ELISA analysis
[29] = biological target: T2, Fibroblast growth factor receptor 1; assay: Inhibition of recombinant FGFR1 (unknown origin) incubated for 60 mins by ELISA analysis
[30] = biological target: T7, Fibroblast growth factor receptor 4; assay: Inhibition of FGFR4 (unknown origin) using biotin as substrate incubated for 1 hrs in the presence of ATP by HTRF assay
[31] = biological target: T10, Epidermal growth factor receptor; assay: Inhibition of EGFR (unknown origin) using biotin as substrate incubated for 1 hrs in the presence of ATP by HTRF assay

T1 sequence (P35968 whole entry, the tested form may be a part): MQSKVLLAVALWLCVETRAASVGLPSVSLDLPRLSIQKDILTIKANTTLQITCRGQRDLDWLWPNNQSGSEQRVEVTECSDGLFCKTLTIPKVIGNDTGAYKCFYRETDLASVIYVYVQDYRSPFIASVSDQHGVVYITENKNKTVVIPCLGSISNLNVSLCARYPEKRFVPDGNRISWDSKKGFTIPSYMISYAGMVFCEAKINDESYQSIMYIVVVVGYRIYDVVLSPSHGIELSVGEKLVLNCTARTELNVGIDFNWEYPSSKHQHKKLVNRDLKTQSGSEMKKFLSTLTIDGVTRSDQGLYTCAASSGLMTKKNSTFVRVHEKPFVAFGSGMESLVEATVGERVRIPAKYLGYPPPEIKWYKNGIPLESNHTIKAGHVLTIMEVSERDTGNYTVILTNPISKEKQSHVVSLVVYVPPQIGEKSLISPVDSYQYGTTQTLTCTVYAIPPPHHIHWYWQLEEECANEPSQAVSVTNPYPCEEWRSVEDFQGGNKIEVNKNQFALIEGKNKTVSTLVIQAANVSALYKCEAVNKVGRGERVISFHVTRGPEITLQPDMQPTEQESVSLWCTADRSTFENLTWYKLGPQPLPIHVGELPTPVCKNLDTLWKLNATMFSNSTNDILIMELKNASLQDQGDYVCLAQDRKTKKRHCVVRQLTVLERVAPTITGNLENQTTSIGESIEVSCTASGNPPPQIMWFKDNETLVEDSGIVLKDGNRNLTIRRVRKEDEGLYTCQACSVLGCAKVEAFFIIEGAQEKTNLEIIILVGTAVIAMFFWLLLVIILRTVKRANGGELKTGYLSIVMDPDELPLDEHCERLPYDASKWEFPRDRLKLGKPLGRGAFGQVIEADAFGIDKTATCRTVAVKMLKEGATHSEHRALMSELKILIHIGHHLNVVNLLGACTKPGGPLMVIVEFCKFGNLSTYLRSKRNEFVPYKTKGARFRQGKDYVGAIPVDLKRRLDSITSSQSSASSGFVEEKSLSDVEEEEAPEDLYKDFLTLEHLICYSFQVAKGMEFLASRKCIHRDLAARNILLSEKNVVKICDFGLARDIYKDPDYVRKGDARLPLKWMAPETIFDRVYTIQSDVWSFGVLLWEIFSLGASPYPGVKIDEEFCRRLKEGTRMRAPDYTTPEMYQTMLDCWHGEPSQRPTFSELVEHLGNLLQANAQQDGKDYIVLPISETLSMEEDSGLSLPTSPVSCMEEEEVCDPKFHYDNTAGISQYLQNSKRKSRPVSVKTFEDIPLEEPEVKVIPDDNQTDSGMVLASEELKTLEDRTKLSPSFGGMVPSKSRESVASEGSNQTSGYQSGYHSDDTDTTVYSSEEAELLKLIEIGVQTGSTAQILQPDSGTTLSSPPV
T9 sequence (P21802 whole entry): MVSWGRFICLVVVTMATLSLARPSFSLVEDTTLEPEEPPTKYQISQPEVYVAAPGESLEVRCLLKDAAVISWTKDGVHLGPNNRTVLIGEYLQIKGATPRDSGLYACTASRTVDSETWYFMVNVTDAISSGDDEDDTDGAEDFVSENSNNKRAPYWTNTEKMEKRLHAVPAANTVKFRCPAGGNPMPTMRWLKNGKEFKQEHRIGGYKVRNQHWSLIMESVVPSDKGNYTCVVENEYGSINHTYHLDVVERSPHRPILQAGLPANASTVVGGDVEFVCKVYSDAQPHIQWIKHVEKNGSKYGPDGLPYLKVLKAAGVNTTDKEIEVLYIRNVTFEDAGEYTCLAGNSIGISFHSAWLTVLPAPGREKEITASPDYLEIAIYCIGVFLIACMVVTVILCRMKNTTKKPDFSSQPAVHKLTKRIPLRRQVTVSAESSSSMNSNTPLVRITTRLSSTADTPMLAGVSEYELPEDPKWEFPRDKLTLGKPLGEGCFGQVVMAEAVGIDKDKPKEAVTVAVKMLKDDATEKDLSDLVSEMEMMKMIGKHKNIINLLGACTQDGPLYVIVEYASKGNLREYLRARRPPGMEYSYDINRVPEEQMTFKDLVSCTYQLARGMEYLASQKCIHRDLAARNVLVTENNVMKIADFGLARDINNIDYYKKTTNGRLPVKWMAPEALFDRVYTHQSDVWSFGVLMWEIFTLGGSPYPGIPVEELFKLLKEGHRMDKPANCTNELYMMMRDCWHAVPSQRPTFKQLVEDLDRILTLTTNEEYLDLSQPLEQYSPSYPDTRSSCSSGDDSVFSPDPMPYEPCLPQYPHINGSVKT
T8 sequence (P22607 whole entry): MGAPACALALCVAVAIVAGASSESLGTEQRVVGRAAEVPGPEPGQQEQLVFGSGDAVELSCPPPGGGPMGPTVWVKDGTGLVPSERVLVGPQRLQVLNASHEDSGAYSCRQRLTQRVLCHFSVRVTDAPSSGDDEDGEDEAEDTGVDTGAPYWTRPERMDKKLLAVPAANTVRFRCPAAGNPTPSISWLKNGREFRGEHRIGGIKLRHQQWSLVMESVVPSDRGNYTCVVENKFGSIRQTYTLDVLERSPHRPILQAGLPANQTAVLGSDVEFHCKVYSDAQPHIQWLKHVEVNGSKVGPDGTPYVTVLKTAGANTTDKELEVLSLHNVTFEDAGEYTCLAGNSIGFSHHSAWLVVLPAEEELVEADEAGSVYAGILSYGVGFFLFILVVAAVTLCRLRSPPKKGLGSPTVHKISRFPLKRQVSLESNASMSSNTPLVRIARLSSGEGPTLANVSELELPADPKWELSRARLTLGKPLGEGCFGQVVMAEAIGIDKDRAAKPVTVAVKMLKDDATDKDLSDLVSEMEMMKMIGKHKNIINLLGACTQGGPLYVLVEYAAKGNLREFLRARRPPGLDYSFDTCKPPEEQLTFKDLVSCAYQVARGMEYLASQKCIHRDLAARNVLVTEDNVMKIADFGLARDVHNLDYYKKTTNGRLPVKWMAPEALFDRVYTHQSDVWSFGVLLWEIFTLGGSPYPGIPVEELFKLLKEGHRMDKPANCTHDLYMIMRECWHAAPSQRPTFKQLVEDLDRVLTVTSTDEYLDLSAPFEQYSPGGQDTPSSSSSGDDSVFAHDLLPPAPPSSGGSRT
T7 sequence (P22455 whole entry): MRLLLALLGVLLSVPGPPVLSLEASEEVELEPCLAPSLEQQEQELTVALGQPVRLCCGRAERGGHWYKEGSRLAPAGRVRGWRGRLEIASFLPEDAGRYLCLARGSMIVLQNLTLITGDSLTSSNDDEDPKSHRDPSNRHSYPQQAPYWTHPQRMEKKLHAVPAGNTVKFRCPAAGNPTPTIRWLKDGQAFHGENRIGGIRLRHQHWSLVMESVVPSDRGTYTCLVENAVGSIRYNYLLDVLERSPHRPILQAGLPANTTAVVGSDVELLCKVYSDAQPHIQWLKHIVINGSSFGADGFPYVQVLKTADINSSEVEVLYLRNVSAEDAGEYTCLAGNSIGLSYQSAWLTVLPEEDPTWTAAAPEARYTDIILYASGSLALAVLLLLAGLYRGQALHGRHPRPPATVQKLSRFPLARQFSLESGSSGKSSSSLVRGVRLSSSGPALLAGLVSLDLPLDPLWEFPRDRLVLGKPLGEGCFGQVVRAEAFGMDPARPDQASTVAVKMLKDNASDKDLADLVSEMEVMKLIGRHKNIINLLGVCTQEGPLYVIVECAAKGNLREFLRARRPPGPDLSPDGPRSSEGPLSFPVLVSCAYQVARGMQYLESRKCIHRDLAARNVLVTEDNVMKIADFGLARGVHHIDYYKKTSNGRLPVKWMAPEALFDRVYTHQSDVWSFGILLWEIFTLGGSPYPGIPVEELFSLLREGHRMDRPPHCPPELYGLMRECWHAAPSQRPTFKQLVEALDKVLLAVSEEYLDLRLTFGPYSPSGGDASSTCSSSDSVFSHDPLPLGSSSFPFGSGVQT
T2 sequence (P11362 whole entry, the tested form may be a part): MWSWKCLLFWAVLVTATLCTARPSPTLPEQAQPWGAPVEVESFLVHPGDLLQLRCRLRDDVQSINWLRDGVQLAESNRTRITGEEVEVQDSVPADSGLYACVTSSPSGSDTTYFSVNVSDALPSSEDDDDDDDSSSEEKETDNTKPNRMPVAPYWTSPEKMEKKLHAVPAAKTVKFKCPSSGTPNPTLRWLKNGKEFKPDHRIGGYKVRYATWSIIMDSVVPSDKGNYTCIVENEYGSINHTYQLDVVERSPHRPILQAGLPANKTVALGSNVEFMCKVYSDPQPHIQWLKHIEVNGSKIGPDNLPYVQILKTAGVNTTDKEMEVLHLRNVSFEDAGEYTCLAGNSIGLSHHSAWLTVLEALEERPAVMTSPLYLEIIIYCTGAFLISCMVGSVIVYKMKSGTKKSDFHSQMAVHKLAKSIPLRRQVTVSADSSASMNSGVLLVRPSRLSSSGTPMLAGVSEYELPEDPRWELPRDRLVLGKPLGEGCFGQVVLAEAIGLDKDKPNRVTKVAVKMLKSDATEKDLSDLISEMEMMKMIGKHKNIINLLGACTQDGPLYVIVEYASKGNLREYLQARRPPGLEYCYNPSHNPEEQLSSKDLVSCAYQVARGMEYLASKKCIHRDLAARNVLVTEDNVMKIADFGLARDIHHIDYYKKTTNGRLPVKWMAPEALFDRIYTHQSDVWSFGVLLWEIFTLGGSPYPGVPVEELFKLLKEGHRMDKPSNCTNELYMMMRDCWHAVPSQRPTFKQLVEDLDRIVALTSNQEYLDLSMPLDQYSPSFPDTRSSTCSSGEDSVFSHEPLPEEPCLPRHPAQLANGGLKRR

Question: Which results are given for O=C(O)CCc1c(/C=C2\C(=O)Nc3ccc(F)cc32)[nH]c2c1C(=O)CCC2?
Answer: IC50 [1]: 25 nM; IC50 [2]: 260 nM; IC50 [3]: 42 nM

Question: How did the inhibition in vivo at 50 mg/kg [4] turn out when COc1cc(OC)c(Cl)c(-c2ccc3c(NC(=O)c4ccc(N5CCNC(C)(C)C5)cc4)n[nH]c3n2)c1Cl [SEGIGRATINIB] was run?
Answer: Its inhibition in vivo at 50 mg/kg is 96.4%.

Question: For Cc1ccc(C(=O)Nc2ccc(CN3CCN(C)CC3)c(C(F)(F)F)c2)cc1C#Cc1cnc2[nH]ncc2c1 [OLVEREMBATINIB], which IC50 [5] is on record?
Answer: Its IC50 is 1.33 nM.

Question: What about the IC50 [6] of the same molecule?
Answer: The IC50 was 2.08 nM.

Question: Which IC50 [7] does the source give for Cn1cc(-c2ccc3c(c2)ncn3-c2cc(NS(=O)(=O)C3CC3)cc(-c3ccc(F)cc3F)c2)cn1 here?
Answer: The IC50 was 59 nM.

Question: What about the inhibition in vivo at 40 mg/kg/day [8] of the same molecule?
Answer: Its inhibition in vivo at 40 mg/kg/day is 92%.

Question: What about the IC50 [9] of the same molecule?
Answer: The IC50 was 9 nM.

Question: And the IC50 [10]?
Answer: The IC50 was 5 nM.

Question: And the IC50 [11]?
Answer: Its IC50 is 89 nM.

Question: What about the IC50 [12] of the same molecule?
Answer: Its IC50 is 11 nM.

Question: And the IC50 [13]?
Answer: Its IC50 is 26 nM.

Question: And the IC50 [14]?
Answer: The IC50 was 35 nM.

Question: What about the inhibition in vivo at 20 mg/kg/day [15] of the same molecule?
Answer: Its inhibition in vivo at 20 mg/kg/day is 37%.

Question: What about the IC50 [16] of the same molecule?
Answer: Its IC50 is 6 nM.

Question: And the IC50 [17]?
Answer: Its IC50 is 16 nM.

Question: And the IC50 [18]?
Answer: The IC50 was 93 nM.

Question: Which results are given for C=CC(=O)Nc1ccc(CN(C(=O)Nc2c(Cl)c(OC)cc(OC)c2Cl)c2cc(Nc3ccc(N4CCN(C)CC4)cc3)ncn2)cc1?
Answer: IC50 [19]: 43 nM; IC50 [20]: 35 nM; IC50 [21]: 21 nM; IC50 [22]: 31 nM; IC50 [23]: 3 nM

Question: What does the source list for CNC(=O)c1cccc2cc(Oc3ccnc(NC(=O)c4ccc(N5CCN(CCO)CC5)cc4)c3)ccc12?
Answer: IC50 [24]: 1.2 nM; IC50 [25]: 6.9 nM; IC50 [26]: 5.6 nM; IC50 [27]: 7.8 nM; IC50 [28]: 1.9 nM; IC50 [29]: 1.8 nM

Question: What does the source list for COc1cc2ncnc(Oc3ccc(NC(=O)Nc4cccc(C(F)(F)F)c4)c4ccccc34)c2cc1OC?
Answer: IC50 [30]: 83.9 nM; IC50 [31]: 86.2 nM
